Test [1] addresses T1, AA-LCKS (LPS-specific CMP-Kdo synthetase, KdsB) (Aquifex aeolicus, UniProt O66914).
T1 construct: recombinant from plasmid pT7-kdsB in E. coli BL21-CodonPlus(DE3)-RIL; no tag mentioned; monomer 27 kDa, gel filtration 53 kDa, homodimer
Put plainly: X-ray crystal structure, […] Å. The test is classed as binding. The following applies: co-crystallised with 1 mM CTP; two Mg2+ (Mg-A, Mg-B) in active site; pH 7.5; 19°C.

Test [2] concerns the target T1, AA-LCKS (LPS-specific CMP-Kdo synthetase, KdsB). Put plainly: discontinuous Kdo activation assay, CTP replaced by UTP. Format: biochemical. The settings on record: co-substrate Kdo; glycine-NaOH pH 9.0 or HEPES-NaOH pH 7.5; 80°C.

Experimental findings from article PMC3149649, “Evidence for a Two-Metal-Ion Mechanism in the Cytidyltransferase KdsB, an Enzyme Involved in Lipopolysaccharide Biosynthesis” (PLoS ONE, 2011) are described below.

T1 sequence (O66914 whole entry): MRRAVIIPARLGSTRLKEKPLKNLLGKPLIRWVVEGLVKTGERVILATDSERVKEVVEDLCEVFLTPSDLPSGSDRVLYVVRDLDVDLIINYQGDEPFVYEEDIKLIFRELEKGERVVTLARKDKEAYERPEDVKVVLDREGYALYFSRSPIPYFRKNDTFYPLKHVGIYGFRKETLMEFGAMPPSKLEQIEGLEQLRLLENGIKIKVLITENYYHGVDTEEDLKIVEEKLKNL

`Nc1ccn([C@@H]2O[C@H](COP(=O)(O)OP(=O)(O)OP(=O)(O)O)[C@@H](O)[C@H]2O)c(=O)n1` [CTP]: in test [1], the “X-ray crystal structure, 2.10 Å” value was “The CTP substrate is bound to the N-terminal domain in each molecule of AA-LCKS”.
Take `O=c1ccn([C@@H]2O[C@H](COP(=O)(O)OP(=O)(O)OP(=O)(O)O)[C@@H](O)[C@H]2O)c(=O)[nH]1` [UTP]: the “discontinuous Kdo activation assay, CTP replaced by UTP” value in test [2] is “AA-LCKS was able to utilize UTP for Kdo activation but not ATP or GTP”.
